Measurements taken from ChEMBL document CHEMBL4261496, “Targeting quinolone- and aminocoumarin-resistant bacteria with new gyramide analogs that inhibit DNA gyrase” (Medchemcomm, 2017).
Converted amounts (≈) assume the structure as drawn. The source made the active and inactive calls. The rule behind the calls is not given here.

Tests used:
[1] = test system: Escherichia coli; assay: Ratio of MIC for ciprofloxacin-resistant Escherichia coli JW5503 harboring GyrB Ser464Phe mutant to MIC for Escherichia coli JW5503; format: functional
[2] = test system: Escherichia coli; assay: Antibacterial activity against gyramide-resistant Escherichia coli JW5503 harboring GyrA Ser97Pro mutant after 16 to 18 hrs by broth microdilution method; format: functional
[3] = test system: Escherichia coli; assay: Antibacterial activity against Escherichia coli BW25113 after 16 to 18 hrs by broth microdilution method; format: functional
[4] = test system: Klebsiella aerogenes; assay: Antibacterial activity against Enterobacter aerogenes clinical isolate after 16 to 18 hrs by broth microdilution method; format: functional
[5] = test system: Escherichia coli; assay: Ratio of MIC for ciprofloxacin-resistant Escherichia coli JW5503 harboring GyrA Asp87Gly mutant to MIC for Escherichia coli JW5503; format: functional
[6] = test system: Escherichia coli; assay: Antibacterial activity against ciprofloxacin-resistant Escherichia coli JW5503 harboring GyrA Ser83Leu mutant after 16 to 18 hrs by broth microdilution method; format: functional
[7] = test system: Enterococcus faecalis; assay: Antibacterial activity against Enterococcus faecalis after 16 to 18 hrs by broth microdilution method; format: functional
[8] = test system: Escherichia coli; assay: Ratio of MIC for gyramide-resistant Escherichia coli JW5503 harboring GyrA Pro35Thr mutant to MIC for Escherichia coli JW5503; format: functional
[9] = test system: Escherichia coli; assay: Ratio of MIC for gyramide-resistant Escherichia coli JW5503 harboring GyrA Phe96Leu mutant to MIC for Escherichia coli JW5503; format: functional
[10] = molecular target: DNA gyrase (Escherichia coli, UniProt P0AES4+P0AES6); assay: Inhibition of Escherichia coli DNA gyrase assessed as inhibition of pUC19 supercoiling after 30 mins by agarose gel electrophoresis; format: protein-complex assay
[11] = test system: Bacillus subtilis; assay: Antibacterial activity against Bacillus subtilis after 16 to 18 hrs by broth microdilution method; format: functional
[12] = test system: Morganella morganii; assay: Antibacterial activity against Morganella morganii clinical isolate after 16 to 18 hrs by broth microdilution method; format: functional
[13] = test system: Escherichia coli; assay: Antibacterial activity against Escherichia coli MC4100 after 16 to 18 hrs by broth microdilution method; format: functional
[14] = test system: Escherichia coli; assay: Ratio of MIC for gyramide-resistant Escherichia coli JW5503 harboring GyrA Ser97Pro mutant to MIC for Escherichia coli JW5503; format: functional
[15] = test system: Escherichia coli; assay: Antibacterial activity against gyramide-resistant Escherichia coli JW5503 harboring GyrA Phe96Leu mutant after 16 to 18 hrs by broth microdilution method; format: functional
[16] = test system: Escherichia coli; assay: Antibacterial activity against Escherichia coli JW5503 after 16 to 18 hrs by broth microdilution method; format: functional
[17] = test system: Streptococcus pyogenes; assay: Antibacterial activity against Streptococcus pyogenes after 16 to 18 hrs by broth microdilution method; format: functional
[18] = test system: Bacillus cereus; assay: Antibacterial activity against Bacillus cereus after 16 to 18 hrs by broth microdilution method; format: functional
[19] = test system: Edwardsiella tarda; assay: Antibacterial activity against Edwardsiella tarda clinical isolate after 16 to 18 hrs by broth microdilution method; format: functional
[20] = test system: Streptococcus agalactiae; assay: Antibacterial activity against Streptococcus agalactiae after 16 to 18 hrs by broth microdilution method; format: functional
[21] = test system: Escherichia coli; assay: Ratio of MIC for gyramide-resistant Escherichia coli JW5503 harboring GyrB Ser464Phe mutant to MIC for Escherichia coli JW5503; format: functional
[22] = test system: Escherichia coli; assay: Antibacterial activity against Escherichia coli JW5503 overexpressing gyrA in absence of IPTG induction after 16 hrs by broth microdilution method; format: functional; details: JW5503, 16 h
[23] = test system: Klebsiella pneumoniae; assay: Antibacterial activity against Klebsiella pneumoniae after 16 to 18 hrs by broth microdilution method; format: functional
[24] = test system: Escherichia coli; assay: Ratio of MIC for ciprofloxacin-resistant Escherichia coli JW5503 harboring GyrA Asp87Tyr mutant to MIC for Escherichia coli JW5503; format: functional
[25] = test system: Shigella flexneri; assay: Antibacterial activity against Shigella flexneri after 16 to 18 hrs by broth microdilution method; format: functional
[26] = test system: Escherichia coli; assay: Antibacterial activity against gyramide-resistant Escherichia coli JW5503 harboring GyrA His45Tyr mutant after 16 to 18 hrs by broth microdilution method; format: functional
[27] = test system: Escherichia coli; assay: Ratio of MIC for novobiocin-resistant Escherichia coli LE316 harboring GyrB Arg136Val mutant to MIC for Escherichia coli HB101; format: functional
[28] = test system: Salmonella typhimurium; assay: Antibacterial activity against Salmonella enterica subsp. enterica serovar Typhimurium after 16 to 18 hrs by broth microdilution method; format: functional
[29] = test system: Escherichia coli; assay: Ratio of MIC for Escherichia coli MC4100 to MIC for Escherichia coli BAS849; format: functional
[30] = test system: Acinetobacter baumannii; assay: Antibacterial activity against Acinetobacter baumannii clinical isolate after 16 to 18 hrs by broth microdilution method; format: functional
[31] = test system: Pseudomonas aeruginosa; assay: Antibacterial activity against Pseudomonas aeruginosa after 16 to 18 hrs by broth microdilution method; format: functional
[32] = test system: Escherichia coli; assay: Antibacterial activity against Escherichia coli JW5503 overexpressing gyrA/gyrB in absence of IPTG induction after 16 hrs by broth microdilution method; format: functional; details: JW5503, 16 h
[33] = test system: Escherichia coli; assay: Antibacterial activity against gyramide-resistant Escherichia coli JW5503 harboring GyrA Pro35Thr mutant after 16 to 18 hrs by broth microdilution method; format: functional
[34] = test system: Escherichia coli; assay: Antibacterial activity against gyramide-resistant Escherichia coli JW5503 harboring GyrB Thr508Met mutant after 16 to 18 hrs by broth microdilution method; format: functional
[35] = test system: Escherichia coli; assay: Antibacterial activity against Escherichia coli JW5503 overexpressing gyrB in presence of IPTG induction after 16 hrs by broth microdilution method; format: functional; details: JW5503, 16 h
[36] = test system: Escherichia coli; assay: Antibacterial activity against Escherichia coli JW5503 overexpressing gyrA in presence of IPTG induction after 16 hrs by broth microdilution method; format: functional; details: JW5503, 16 h
[37] = test system: Escherichia coli; assay: Ratio of MIC for novobiocin-resistant Escherichia coli CC7 harboring GyrB Arg136Ser mutant to MIC for Escherichia coli HB101; format: functional
[38] = test system: Escherichia coli; assay: Ratio of MIC for ciprofloxacin-resistant Escherichia coli JW5503 harboring GyrA Ser83Leu mutant to MIC for Escherichia coli JW5503; format: functional
[39] = test system: Escherichia coli; assay: Antibacterial activity against Escherichia coli UPEC after 16 to 18 hrs by broth microdilution method; format: functional
[40] = test system: Staphylococcus saprophyticus; assay: Antibacterial activity against Staphylococcus saprophyticus clinical isolate after 16 to 18 hrs by broth microdilution method; format: functional
[41] = test system: Escherichia coli; assay: Antibacterial activity against ciprofloxacin-resistant Escherichia coli JW5503 harboring GyrA Asp87Gly mutant after 16 to 18 hrs by broth microdilution method; format: functional
[42] = test system: Enterococcus faecium; assay: Antibacterial activity against Enterococcus faecium after 16 to 18 hrs by broth microdilution method; format: functional
[43] = molecular target: DNA gyrase (Escherichia coli) (UniProt P0AES6+P0AES4); assay: Inhibition of Escherichia coli DNA gyrase ATPase activity up to 100 uM using DNA as substrate after 60 mins; format: protein-complex assay
[44] = test system: Escherichia coli; assay: Antibacterial activity against Escherichia coli JW5503 transfected with empty vector in absence of IPTG induction after 16 hrs by broth microdilution method; format: functional; details: JW5503, 16 h
[45] = test system: Escherichia coli; assay: Antibacterial activity against ciprofloxacin-resistant Escherichia coli JW5503 harboring GyrA Asp87Tyr mutant after 16 to 18 hrs by broth microdilution method; format: functional
[46] = test system: Staphylococcus aureus; assay: Antibacterial activity against Staphylococcus aureus subsp. aureus clinical isolate after 16 to 18 hrs by broth microdilution method; format: functional
[47] = test system: Escherichia coli; assay: Antibacterial activity against Escherichia coli HB101 after 16 to 18 hrs in presence of PAbetaN by broth microdilution method; format: functional
[48] = test system: Escherichia coli; assay: Antibacterial activity against Escherichia coli HB101 after 16 to 18 hrs by broth microdilution method; format: functional
[49] = test system: Escherichia coli; assay: Ratio of MIC for novobiocin-resistant Escherichia coli CC5 harboring GyrB Arg136His mutant to MIC for Escherichia coli HB101; format: functional
[50] = test system: Staphylococcus epidermidis; assay: Antibacterial activity against Staphylococcus epidermidis clinical isolate after 16 to 18 hrs by broth microdilution method; format: functional
[51] = test system: Escherichia coli; assay: Antibacterial activity against Escherichia coli JW5503 overexpressing gyrA/gyrB in presence of IPTG induction after 16 hrs by broth microdilution method; format: functional; details: JW5503, 16 h
[52] = test system: Escherichia coli; assay: Ratio of MIC for gyramide-resistant Escherichia coli JW5503 harboring GyrA His45Tyr mutant to MIC for Escherichia coli JW5503; format: functional
[53] = test system: Escherichia coli; assay: Antibacterial activity against Escherichia coli JW5503 simultaneously overexpressing gyrA/gyrB in presence of IPTG induction after 16 hrs by broth microdilution method; format: functional, organism-based
[54] = Ratio of MIC for Escherichia coli BW25113 to MIC for Escherichia coli JW5503; format: functional
[55] = test system: Escherichia coli; assay: Antibacterial activity against Escherichia coli BAS849 after 16 to 18 hrs by broth microdilution method; format: functional

N#Cc1cccc(S(=O)(=O)N[C@@H]2CCN(Cc3ccc(-c4ccccc4)cc3)C2)c1
Ratio [1]: 2 - 4 | MIC [2]: > 10 µg/mL | MIC [3]: 16 µg/mL (≈ 38.3 µM) | MIC [4]: > 16 µg/mL | Ratio [5]: 2 - 4 | MIC [6]: 0.2 µg/mL (≈ 0.479 µM) | MIC [7]: > 16 µg/mL | Ratio [8]: 10 - 100 | Ratio [9]: 10 - 100 | IC50 [10]: 52 nM | MIC [11]: > 16 µg/mL | MIC [12]: > 16 µg/mL | MIC [13]: 8 µg/mL (≈ 19.2 µM) | Ratio [14]: 10 - 100 | MIC [15]: 10 µg/mL (≈ 24 µM) | MIC [16]: 0.1 µg/mL (≈ 0.24 µM) | MIC [17]: > 16 µg/mL | MIC [18]: > 16 µg/mL | MIC [19]: 16 µg/mL (≈ 38.3 µM) | MIC [20]: > 16 µg/mL | Ratio [21]: 10 - 100 | MIC [22]: 0.2 µg/mL (≈ 0.479 µM) | MIC [23]: > 16 µg/mL | Ratio [24]: 2 - 4 | MIC [25]: 8 µg/mL (≈ 19.2 µM) | MIC [26]: 10 µg/mL (≈ 24 µM) | Ratio [27]: 2 - 4 | MIC [28]: 2 µg/mL (≈ 4.79 µM) | Ratio [29]: 8 | MIC [30]: > 16 µg/mL | MIC [31]: > 16 µg/mL | MIC [32]: 0.2 µg/mL (≈ 0.479 µM) | MIC [33]: 10 µg/mL (≈ 24 µM) | MIC [34]: 10 µg/mL (≈ 24 µM) | MIC [35]: 0.1 µg/mL | MIC [36]: 0.1 µg/mL | Ratio [37]: 2 - 4 | Ratio [38]: 2 - 4 | MIC [39]: 16 µg/mL (≈ 38.3 µM) | MIC [40]: > 16 µg/mL | MIC [41]: 0.4 µg/mL (≈ 0.958 µM) | MIC [42]: > 16 µg/mL | inhibition [43]: inactive | MIC [44]: 0.2 µg/mL (≈ 0.479 µM) | MIC [45]: 0.4 µg/mL (≈ 0.958 µM) | MIC [46]: > 16 µg/mL | MIC [47]: 0.1 µg/mL | MIC [48]: > 16 µg/mL | Ratio [49]: 2 - 4 | MIC [50]: > 16 µg/mL | MIC [51]: 0.1 µg/mL | Ratio [52]: 10 - 100 | Activity [53]: Active | Ratio [54]: 160 | MIC [55]: 1 µg/mL (≈ 2.4 µM)
